Experimental data reported in ChEMBL document CHEMBL1201862, “PubChem BioAssay data set” (2004).
Activity calls are given as the source filed them.

Experiments:
Caspase-3 = molecular target: T1, Caspase-3 (Homo sapiens, UniProt P42574); assay type: functional;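 further: Dose-response selectivity test against caspase-3 for candidate inhibitors of sentrin-specific proteases (SENPs)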
T1 sequence (P42574 whole entry): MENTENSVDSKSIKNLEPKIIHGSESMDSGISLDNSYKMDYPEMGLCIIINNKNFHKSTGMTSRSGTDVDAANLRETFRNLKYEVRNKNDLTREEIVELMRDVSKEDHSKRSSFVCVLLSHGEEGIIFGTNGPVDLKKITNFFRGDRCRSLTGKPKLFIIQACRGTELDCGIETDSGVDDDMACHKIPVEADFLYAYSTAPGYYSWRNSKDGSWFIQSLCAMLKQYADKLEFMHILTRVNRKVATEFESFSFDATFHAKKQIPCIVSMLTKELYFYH

[1] = molecular target: T2, Sentrin-specific protease 7 (Homo sapiens, UniProt Q9BQF6); assay type: functional;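 further: Luminescence-based dose-response confirmation of ultra-high-throughput screening hits, measuring inhibition of SENP7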
T2 sequence (Q9BQF6 whole entry): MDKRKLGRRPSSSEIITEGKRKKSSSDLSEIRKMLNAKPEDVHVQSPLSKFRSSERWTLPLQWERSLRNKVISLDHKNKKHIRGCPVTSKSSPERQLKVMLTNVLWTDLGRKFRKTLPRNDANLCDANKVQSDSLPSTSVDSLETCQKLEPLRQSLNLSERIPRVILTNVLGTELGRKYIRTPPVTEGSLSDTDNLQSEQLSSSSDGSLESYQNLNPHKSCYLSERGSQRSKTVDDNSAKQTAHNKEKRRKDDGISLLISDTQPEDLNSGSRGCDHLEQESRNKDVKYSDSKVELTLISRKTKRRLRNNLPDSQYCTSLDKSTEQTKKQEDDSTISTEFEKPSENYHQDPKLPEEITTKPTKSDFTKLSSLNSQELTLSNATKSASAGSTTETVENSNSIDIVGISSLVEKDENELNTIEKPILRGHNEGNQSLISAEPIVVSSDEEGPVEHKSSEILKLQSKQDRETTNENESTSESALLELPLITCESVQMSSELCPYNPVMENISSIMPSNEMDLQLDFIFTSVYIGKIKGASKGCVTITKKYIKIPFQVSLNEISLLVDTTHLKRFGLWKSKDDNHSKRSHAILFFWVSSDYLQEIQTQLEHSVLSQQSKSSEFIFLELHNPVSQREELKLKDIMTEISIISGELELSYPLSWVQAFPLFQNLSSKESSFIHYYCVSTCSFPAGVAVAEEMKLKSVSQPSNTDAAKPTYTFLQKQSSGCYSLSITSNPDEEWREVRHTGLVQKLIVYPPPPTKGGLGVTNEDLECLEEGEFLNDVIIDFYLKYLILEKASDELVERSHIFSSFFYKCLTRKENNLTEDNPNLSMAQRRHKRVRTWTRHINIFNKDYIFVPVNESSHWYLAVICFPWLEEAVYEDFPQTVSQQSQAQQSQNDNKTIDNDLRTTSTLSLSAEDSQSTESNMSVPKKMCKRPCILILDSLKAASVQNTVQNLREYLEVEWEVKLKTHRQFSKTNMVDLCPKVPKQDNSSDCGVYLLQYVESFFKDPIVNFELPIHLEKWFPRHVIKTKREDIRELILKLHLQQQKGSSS

[2] = Luminescence-based cell-based high throughput dose response assay to identify activators of the DAF-12 from the parasite S. stercoralis (ssDAF-12).; assay type: functional
[3] = molecular target: T3, Oxysterols receptor LXR-beta (Homo sapiens, UniProt P55055); assay type: functional, cell-based;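 further: Cell-based luminescence dose-response assay of agonist activity at LXR, run as a confirmatory counterscreen to a daf-12 agonist screen; agonist potency from rising luciferase signal of a Gal4-LXR reporter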
T3 sequence (P55055 whole entry): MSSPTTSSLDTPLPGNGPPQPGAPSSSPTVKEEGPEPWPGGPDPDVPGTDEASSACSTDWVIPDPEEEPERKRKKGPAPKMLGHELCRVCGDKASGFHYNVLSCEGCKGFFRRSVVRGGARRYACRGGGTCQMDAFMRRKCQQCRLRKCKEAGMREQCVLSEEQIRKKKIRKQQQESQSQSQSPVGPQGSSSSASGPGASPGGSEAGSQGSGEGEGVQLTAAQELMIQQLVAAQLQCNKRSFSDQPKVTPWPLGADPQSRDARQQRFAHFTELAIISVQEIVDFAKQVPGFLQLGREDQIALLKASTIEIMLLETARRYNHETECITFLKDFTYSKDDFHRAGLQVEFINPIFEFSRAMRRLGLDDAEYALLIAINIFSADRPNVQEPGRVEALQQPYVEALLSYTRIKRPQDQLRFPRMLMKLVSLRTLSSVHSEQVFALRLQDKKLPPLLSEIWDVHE

[4] = molecular target: T4, Sentrin-specific protease 6 (Homo sapiens, UniProt Q9GZR1); assay type: functional;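 further: Luminescence-based dose-response confirmatory assay of SENP6 inhibition, following up an ultra-high-throughput screen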
T4 sequence (Q9GZR1 whole entry): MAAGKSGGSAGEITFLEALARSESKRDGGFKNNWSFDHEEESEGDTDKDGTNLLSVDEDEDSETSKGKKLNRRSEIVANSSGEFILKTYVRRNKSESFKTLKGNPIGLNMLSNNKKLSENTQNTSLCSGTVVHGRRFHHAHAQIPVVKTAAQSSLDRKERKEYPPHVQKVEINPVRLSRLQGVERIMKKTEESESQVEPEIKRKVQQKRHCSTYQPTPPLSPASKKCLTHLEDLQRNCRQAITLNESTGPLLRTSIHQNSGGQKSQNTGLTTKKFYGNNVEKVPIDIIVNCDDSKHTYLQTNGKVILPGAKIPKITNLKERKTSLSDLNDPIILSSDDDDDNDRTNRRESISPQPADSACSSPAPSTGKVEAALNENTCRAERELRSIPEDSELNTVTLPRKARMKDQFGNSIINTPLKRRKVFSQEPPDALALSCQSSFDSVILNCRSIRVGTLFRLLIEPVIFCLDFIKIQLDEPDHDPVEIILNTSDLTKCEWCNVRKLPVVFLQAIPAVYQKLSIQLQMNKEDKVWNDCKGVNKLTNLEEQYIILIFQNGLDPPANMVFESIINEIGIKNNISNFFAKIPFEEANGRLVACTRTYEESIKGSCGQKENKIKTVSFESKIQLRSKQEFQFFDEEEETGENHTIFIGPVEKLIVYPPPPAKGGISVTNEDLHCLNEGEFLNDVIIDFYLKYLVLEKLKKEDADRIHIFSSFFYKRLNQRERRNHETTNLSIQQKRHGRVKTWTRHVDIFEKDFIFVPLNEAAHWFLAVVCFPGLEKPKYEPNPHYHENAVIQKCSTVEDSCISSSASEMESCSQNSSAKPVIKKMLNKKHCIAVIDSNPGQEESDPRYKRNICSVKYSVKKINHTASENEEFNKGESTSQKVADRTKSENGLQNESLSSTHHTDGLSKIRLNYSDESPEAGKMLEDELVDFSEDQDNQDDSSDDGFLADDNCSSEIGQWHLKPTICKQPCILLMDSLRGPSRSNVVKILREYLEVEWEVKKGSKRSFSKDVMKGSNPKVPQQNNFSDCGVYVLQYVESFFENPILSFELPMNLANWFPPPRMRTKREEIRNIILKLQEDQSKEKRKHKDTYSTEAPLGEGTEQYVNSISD

[5] = molecular target: T5, Sentrin-specific protease 8 (Homo sapiens, UniProt Q96LD8); assay type: functional;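 further: luminescence read-out of SENP8 inhibition, dose-response confirmation following an ultra-high-throughput screen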
T5 sequence (Q96LD8 whole entry): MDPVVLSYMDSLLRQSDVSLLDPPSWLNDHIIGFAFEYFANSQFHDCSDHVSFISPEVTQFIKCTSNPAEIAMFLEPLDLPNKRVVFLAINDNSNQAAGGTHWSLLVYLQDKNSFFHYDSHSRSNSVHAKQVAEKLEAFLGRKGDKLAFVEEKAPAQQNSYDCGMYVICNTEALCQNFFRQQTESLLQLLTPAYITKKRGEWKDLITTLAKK

[6] = molecular target: T3, Oxysterols receptor LXR-beta; assay: LXR agonists, Gal4 luciferase reporter, dose response, counter-screen for ssDAF-12 agonist project, cell-based, luminescence, HEK293, S. stercoralis campaign (AID 720737); assay type: functional; settings: read-out: IC50 (the source's name)
[7] = alpha-synuclein stem-loop luciferase translation blockers – H4 neuroglioma cells, luminescence, confirmation (AID 1988); assay type: functional, cell-based
[8] = Luminescence Cell-Based Dose Response HTS to Identify Inhibitors of 5'UTR Stem-Loop Driven Prion Protein mRNA Translation in H4 Neuroglioblastoma Cells. [Related pubchem assays: 1827 (Project Summary), 1813 (Primary HTS)]; assay type: functional
[9] = molecular target: RNA-editing ligase 1, mitochondrial (Trypanosoma brucei brucei, UniProt P86926); assay: inhibition of trypanosome RNA editing ligase – biochemical, fluorescence, Trypanosoma brucei, dose response (AID 1117295); assay type: functional
[10] = luciferase reporter signal suppression in cells – H4 neuroglioma cells, luminescence, dose response (AID 1990); assay type: functional, cell-based
Caspase-8 = Caspase-8 (Homo sapiens, UniProt Q14790); assay: inhibitors of purified CASP8 protease – biochemical, Z-IETD-R110 fluorescence, cherry-picked samples, selectivity assay for caspase-6 inhibitor project, dose response (AID 743294)
Caspase-9 = Caspase-9 (Homo sapiens, UniProt P55211); assay: inhibitors of purified CASP9 protease – biochemical, fluorescence, plate reader, cherry-picked samples, selectivity assay for caspase-6 inhibitor project, dose response (AID 743293)
Caspase-6 = molecular target: T6, Caspase-6 (Homo sapiens, UniProt P55212); assay: inhibition of CASP6 peptide cleavage – biochemical, VEID-R110 fluorescence, cherry-pick, dose response (AID 720632)
T6 sequence (P55212 whole entry): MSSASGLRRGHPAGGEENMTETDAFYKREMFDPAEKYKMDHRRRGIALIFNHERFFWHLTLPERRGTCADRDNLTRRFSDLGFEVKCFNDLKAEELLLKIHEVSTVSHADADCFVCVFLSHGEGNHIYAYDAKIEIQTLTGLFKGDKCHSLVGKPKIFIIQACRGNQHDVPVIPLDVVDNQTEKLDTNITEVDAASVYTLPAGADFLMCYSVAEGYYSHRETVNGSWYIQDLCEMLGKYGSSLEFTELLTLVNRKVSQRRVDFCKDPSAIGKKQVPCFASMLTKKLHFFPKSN

[11] = molecular target: Tyrosyl-DNA phosphodiesterase 2 (Homo sapiens, UniProt O95551); assay: potency against TDP2 phosphodiesterase activity – biochemical, epi absorbance, IC50, dose response (AID 743297)
[12] = molecular target: T7, Mitochondrial peptide methionine sulfoxide reductase (Bos taurus, UniProt P54149); assay: Absorbance-based biochemical high throughput dose response assay for activators of Methionine sulfoxide reductase A (MsrA).; assay type: functional
T7 sequence (P54149 whole entry): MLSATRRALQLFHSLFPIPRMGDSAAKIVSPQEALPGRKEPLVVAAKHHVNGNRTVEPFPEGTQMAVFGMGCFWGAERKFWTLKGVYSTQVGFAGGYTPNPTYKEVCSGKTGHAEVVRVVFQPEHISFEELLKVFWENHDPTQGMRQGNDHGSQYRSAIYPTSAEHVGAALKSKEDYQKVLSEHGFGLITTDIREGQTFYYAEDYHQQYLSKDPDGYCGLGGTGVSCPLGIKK

[13] = ATP-based viability loss in HEK293T cells – cell-based, CellTiter-Glo luminescence, dry powder, set 2, cytotoxicity control, dose response (AID 720595); assay type: functional; settings: HEK293
Nonstructural protein 1 = Nonstructural protein 1 (Influenza A virus, UniProt Q194T2); assay type: functional, Influenza A virus (A/California/07/2009(H1N1))
[14] = molecular target: Muscarinic acetylcholine receptor M5 (Rattus norvegicus, UniProt P08911); assay: Discovery of Selective Novel Positive Allosteric Modulators (PAM) of the Muscarinic Receptor (M5) in CHO cells expressing Rattus Norvegicus M5 receptor.; assay type: functional, cell-based
[15] = molecular target: T8, Muscarinic acetylcholine receptor M5 (Homo sapiens, UniProt P08912); assay: agonist curve shift by M5 PAMs – cell-based, calcium fluorescence, mechanism study (AID 651776); assay type: functional
[16] = molecular target: T8, Muscarinic acetylcholine receptor M5; assay: potentiation of ACh response at human M5 – cell-based, concentration-response curve, dose response (AID 651878); assay type: functional
[17] = Dd2 parasite growth inhibition in erythrocytes – SYBR Green, dry powder samples, set 9, dose response (AID 1159568); assay type: functional, cell-based
[18] = molecular target: Metabotropic glutamate receptor 7 (Homo sapiens, UniProt Q14831); assay: potentiation of glutamate EC20 at mGlu7 – cell-based, calcium mobilization, Galpha15, dose response (AID 743384); assay type: functional
Phospholipase D1 = Phospholipase D1 (Homo sapiens, UniProt Q13393); assay: PLD1 Cellular Concentration Response Study.; assay type: functional
Phospholipase D2 = Phospholipase D2 (Homo sapiens, UniProt O14939); assay: PLD2 Cellular Concentration Response Study.; assay type: functional
Chain of Phospholipase D2 (O14939 whole entry): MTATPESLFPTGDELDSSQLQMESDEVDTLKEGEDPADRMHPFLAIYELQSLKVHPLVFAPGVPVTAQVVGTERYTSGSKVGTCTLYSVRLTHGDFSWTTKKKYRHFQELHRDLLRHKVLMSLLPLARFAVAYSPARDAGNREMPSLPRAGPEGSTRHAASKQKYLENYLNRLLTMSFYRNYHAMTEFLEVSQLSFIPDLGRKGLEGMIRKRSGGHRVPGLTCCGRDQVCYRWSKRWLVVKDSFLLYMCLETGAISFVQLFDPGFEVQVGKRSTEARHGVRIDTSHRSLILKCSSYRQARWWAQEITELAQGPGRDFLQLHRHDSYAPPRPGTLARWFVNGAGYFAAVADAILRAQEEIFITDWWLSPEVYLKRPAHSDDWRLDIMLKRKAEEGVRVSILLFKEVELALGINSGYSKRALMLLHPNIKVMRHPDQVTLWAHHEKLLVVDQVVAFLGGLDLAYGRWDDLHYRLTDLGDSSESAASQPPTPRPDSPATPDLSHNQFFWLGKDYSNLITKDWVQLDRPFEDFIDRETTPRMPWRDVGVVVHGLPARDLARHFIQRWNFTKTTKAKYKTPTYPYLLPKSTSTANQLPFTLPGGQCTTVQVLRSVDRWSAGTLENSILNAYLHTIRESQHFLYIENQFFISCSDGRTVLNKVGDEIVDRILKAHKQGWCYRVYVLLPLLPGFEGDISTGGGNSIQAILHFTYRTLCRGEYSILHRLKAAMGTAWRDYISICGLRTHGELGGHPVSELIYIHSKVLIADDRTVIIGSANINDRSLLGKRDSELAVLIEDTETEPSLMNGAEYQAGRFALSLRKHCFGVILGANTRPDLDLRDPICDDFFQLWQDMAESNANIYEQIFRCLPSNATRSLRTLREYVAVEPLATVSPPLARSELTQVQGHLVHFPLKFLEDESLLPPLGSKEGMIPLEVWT

T8 sequence (P08912 whole entry): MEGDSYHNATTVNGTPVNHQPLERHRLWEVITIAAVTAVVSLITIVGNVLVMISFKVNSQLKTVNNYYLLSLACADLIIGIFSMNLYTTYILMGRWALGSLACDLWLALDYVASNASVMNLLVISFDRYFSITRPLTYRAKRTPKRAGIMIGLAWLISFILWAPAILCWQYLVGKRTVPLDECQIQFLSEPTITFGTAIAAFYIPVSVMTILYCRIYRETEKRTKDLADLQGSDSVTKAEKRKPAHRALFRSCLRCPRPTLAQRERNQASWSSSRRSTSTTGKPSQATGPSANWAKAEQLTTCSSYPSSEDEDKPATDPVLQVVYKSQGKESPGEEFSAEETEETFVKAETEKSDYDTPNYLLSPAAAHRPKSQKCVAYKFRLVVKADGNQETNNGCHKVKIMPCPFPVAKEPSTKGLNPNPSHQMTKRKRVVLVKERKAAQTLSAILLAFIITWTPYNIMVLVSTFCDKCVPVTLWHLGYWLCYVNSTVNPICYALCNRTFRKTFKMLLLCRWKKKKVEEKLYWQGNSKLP
Chain of Phospholipase D1 (Q13393 whole entry): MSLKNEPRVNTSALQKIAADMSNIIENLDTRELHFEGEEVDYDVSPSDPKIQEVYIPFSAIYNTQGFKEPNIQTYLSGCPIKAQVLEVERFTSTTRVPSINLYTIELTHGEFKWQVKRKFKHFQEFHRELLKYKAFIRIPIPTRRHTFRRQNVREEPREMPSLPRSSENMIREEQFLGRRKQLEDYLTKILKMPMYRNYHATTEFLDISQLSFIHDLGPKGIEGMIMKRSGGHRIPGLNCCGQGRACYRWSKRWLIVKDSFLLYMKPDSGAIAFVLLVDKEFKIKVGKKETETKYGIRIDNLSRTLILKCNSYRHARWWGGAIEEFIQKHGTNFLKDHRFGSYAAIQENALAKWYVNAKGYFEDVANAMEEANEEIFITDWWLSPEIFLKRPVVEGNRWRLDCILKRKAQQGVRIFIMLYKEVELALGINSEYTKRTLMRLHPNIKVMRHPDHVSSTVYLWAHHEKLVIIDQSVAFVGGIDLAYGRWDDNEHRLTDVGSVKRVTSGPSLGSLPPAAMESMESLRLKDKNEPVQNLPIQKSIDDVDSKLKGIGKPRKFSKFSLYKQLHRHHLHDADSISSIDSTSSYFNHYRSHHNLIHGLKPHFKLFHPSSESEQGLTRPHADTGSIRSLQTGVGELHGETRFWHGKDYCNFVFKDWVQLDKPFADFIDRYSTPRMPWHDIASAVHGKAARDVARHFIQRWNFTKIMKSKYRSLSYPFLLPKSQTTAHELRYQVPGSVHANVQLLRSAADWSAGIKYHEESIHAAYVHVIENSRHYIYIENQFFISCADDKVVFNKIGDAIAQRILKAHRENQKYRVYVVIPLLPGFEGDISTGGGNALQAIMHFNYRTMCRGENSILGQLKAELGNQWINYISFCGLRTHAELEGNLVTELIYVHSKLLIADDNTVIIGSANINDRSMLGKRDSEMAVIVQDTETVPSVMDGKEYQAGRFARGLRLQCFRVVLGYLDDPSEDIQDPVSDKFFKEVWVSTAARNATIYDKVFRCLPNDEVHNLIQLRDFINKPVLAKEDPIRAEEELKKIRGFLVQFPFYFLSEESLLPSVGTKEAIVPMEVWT
Chain of Muscarinic acetylcholine receptor M5 (Rattus norvegicus, UniProt P08911) (P08911 whole entry): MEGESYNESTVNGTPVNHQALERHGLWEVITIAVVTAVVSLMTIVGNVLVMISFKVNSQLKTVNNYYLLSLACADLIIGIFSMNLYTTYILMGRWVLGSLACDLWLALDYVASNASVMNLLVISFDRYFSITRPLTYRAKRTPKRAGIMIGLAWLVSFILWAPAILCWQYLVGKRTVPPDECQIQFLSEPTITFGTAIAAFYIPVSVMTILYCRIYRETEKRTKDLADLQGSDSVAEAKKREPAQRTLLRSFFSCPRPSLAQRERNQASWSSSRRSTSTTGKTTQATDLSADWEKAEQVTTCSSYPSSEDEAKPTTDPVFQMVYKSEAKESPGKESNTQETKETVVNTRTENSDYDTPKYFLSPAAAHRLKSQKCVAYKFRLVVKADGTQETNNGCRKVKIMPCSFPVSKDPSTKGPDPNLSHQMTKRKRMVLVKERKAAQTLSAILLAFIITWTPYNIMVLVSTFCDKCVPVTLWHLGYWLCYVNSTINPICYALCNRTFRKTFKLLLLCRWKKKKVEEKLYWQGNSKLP
Chain of Metabotropic glutamate receptor 7 (Q14831 whole entry): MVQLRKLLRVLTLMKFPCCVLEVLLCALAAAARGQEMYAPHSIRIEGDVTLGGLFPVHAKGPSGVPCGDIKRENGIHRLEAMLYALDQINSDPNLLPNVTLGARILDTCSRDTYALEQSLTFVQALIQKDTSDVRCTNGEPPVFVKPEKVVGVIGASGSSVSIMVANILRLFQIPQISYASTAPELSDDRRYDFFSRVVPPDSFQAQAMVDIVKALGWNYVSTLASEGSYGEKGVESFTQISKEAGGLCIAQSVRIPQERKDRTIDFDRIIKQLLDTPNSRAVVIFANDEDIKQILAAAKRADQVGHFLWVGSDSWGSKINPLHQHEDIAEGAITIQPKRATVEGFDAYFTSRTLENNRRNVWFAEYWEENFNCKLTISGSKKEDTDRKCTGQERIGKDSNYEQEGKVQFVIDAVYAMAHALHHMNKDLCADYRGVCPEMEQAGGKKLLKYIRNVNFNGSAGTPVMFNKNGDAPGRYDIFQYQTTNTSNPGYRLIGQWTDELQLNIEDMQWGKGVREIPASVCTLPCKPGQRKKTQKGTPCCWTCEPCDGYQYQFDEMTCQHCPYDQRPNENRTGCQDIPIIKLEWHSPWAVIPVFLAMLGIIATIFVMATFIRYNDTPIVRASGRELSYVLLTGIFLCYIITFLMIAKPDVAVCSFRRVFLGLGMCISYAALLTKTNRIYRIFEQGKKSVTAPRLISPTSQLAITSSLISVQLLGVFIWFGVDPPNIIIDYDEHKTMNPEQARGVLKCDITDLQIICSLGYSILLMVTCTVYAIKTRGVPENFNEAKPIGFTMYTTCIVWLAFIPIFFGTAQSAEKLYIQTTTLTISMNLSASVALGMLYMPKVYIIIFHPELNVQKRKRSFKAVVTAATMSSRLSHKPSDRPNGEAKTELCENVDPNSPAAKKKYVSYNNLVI
Chain of Tyrosyl-DNA phosphodiesterase 2 (O95551 whole entry): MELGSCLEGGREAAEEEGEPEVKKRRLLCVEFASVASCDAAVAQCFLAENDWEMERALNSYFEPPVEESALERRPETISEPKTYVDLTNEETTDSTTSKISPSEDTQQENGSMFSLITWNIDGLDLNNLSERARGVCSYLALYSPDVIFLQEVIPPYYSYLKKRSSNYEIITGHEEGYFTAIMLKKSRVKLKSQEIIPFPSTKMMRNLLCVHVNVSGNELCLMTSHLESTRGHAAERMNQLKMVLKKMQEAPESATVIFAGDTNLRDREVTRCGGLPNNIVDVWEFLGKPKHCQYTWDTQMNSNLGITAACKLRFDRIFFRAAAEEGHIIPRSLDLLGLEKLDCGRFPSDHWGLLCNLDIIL
Chain of RNA-editing ligase 1, mitochondrial (P86926 whole entry): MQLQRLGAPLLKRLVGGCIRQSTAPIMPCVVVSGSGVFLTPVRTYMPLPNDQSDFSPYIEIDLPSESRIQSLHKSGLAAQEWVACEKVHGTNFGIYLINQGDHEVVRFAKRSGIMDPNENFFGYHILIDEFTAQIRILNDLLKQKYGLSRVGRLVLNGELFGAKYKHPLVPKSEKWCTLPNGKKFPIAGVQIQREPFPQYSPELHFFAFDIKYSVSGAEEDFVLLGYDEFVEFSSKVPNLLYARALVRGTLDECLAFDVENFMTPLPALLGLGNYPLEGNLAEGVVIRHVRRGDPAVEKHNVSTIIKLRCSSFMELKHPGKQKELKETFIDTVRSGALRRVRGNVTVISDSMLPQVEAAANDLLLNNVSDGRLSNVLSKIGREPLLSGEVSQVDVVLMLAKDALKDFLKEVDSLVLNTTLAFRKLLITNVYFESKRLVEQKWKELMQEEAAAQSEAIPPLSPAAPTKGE
Chain of Nonstructural protein 1 (Q194T2 whole entry): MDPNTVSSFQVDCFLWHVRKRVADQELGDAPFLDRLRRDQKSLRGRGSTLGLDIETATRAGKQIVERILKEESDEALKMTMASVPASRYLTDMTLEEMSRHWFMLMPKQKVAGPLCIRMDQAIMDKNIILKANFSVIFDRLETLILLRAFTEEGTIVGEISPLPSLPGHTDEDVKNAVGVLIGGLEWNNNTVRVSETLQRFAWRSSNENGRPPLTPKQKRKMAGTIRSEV

In the case of `O=C(Nc1nc2ccccc2[nH]1)Nc1ccccc1F`, the IC50 (Caspase-3) is reported as 18.5 µM (active), the IC50 [1] is reported as 7.28 µM (active) and the EC50 (cells) is reported as > 67.5 µM (inactive). For the same molecule, the IC50 [2] was > 67.5 µM (inactive), the EC50 [3] was > 67.5 µM (inactive) and the IC50 [4] was 10.6 µM (active). The IC50 [5] was 14.5 µM (active) and the EC50 [6] was > 67.5 µM (inactive).

In the case of `O=c1cc(CN2CCc3ccccc32)nc2sccn12`, the EC50 [7] is reported as 10.9 µM (active), the EC50 [8] is reported as 0.231 µM (active) and the IC50 [9] is reported as 22.9 µM (inactive). For the same molecule, the EC50 [10] was 18.2 µM (active).

For `COc1cc(NC(=O)COC(=O)c2ccc([N+](=O)[O-])s2)cc(OC)c1OC`, the AC50 (Caspase-8) was 20.4 µM (active), the IC50 (Caspase-3) was 8.45 µM (active) and the IC50 [1] was 5.51 µM (active). For the same molecule, the AC50 (Caspase-9) was 21.5 µM (active), the AC50 (Caspase-6) was 2.44 µM (active) and the IC50 [4] was 3.82 µM (active). For the same molecule, the IC50 [11] was 48.3 µM (inactive), the IC50 [5] was 3.88 µM (active) and the EC50 [12] was 63.6 µM (inactive).

In the case of `COC(=O)Cc1cc(O)n(-c2nc3ccccc3[nH]2)n1`, the AC50 [13] is reported as 30.4 µM (active) and the IC50 (Nonstructural protein 1) is reported as 12.5 µM (active).

In the case of `O=C1C(=O)N(CCOc2ccccc2)c2ccc(OC(F)(F)F)cc21`, the EC50 [14] is reported as 0.466 µM, the EC50 [15] is reported as 51.6 µM (active) and the EC50 [16] is reported as 0.55 µM.

With `CC(C)NC(=O)NCC[C@@H]1CC[C@H](NS(=O)(=O)c2ccc(Oc3ccccc3)cc2)[C@@H](CO)O1` the AC50 [17] was 32.1 µM (active).

For `COc1ccc(SCC(=O)c2cc(C)n(-c3ccc(OC(F)F)cc3)c2C)cc1`, the EC50 [18] was 3.16 µM (active).

In the case of `O=C(NCCN1CCC2(CC1)C(=O)NCN2Cc1ccccn1)c1ccc2ccccc2c1`, the IC50 (Phospholipase D1) is reported as 2.63 µM (active) and the IC50 (Phospholipase D2) is reported as 0.08 µM (active).
